One data set concerns Haemophilus influenzae. In words: Antibacterial activity against Haemophilus influenzae H128 after 18 to 24 hrs by broth microdilution method. The format is functional. A general note: Dilution methods test growth across graded concentrations, often in twofold steps.
For data set [1], the system named is Streptococcus pneumoniae. In words: Antibacterial activity against quinolone-resistant Streptococcus pneumoniae TPS3 after 18 to 24 hrs by broth microdilution method. Type of data set: functional.
The next data set deals with Staphylococcus aureus. In words: Antibacterial activity against Staphylococcus aureus WCUH 29 after 18 to 24 hrs by broth microdilution method. Type of data set: functional.
Data set [2] is described as follows: Inhibition of Haemophilus influenzae DNA gyrase-dependent DNA replication by scintillation proximity assay. For orientation: In a scintillation proximity assay essentially only radioactivity close to the scintillant gives light.
The test system of data set [3] is Liver microsome. Description: Intrinsic clearance in Beagle dog liver microsomes assessed per gram of liver at 0.5 uM by LC/MS/MS analysis. Type of data set: ADME, Canis lupus familiaris.
A short description of data set [4]: Volume of distribution at steady state in Sprague-Dawley rat at 3 mg/kg, iv administered as single dose by LC/MS/MS analysis. Type of data set: ADME, organism-based. To be noted: in vivo, read-out: Vdss.
Data set [5] deals with Cynomolgus monkey. Description: AUC in cynomolgus monkey at 5 mg/kg, po administered as single dose by LC/MS/MS analysis. The format is ADME, organism-based, Macaca fascicularis. As to conditions: in vivo.
The subject of data set [6] is Rattus norvegicus. In words: AUC in Sprague-Dawley rat at 5 mg/kg, po administered as single dose by LC/MS/MS analysis. The format is ADME, organism-based. To be noted: in vivo.
Data set [7] concerns Cynomolgus monkey. In words: Oral bioavailability in cynomolgus monkey at 5 mg/kg administered as single dose by LC/MS/MS analysis. The format is ADME, organism-based, Macaca fascicularis. As to conditions: in vivo.
The nature of data set [8]: Plasma protein binding in Beagle dog at 0.5 to 5 ug/ml by equilibrium dialysis method. The format is ADME, cell-free, Canis lupus familiaris. To be noted: read-out: PPB (converted).
Data set [9] deals with Cynomolgus monkey. In words: Renal clearance in cynomolgus monkey at 3 mg/kg, iv administered as single dose by LC/MS/MS analysis relative to total clearance. To be noted: in vivo. Type of data set: ADME, organism-based, Macaca fascicularis, Kidney.
Data set [10] can be described thus: Cmax in Sprague-Dawley rat at 100 mg/kg, po bid by LC/MS/MS analysis. The format is ADME, organism-based. On the set-up: dose 100 mg/kg, route oral. As to conditions: in vivo.
The test system of data set [11] is Rattus norvegicus. In words: Oral bioavailability in Sprague-Dawley rat at 5 mg/kg administered as single dose by LC/MS/MS analysis. The format is ADME, organism-based. As to conditions: in vivo.
A short description of data set [12]: Terminal half life in Beagle dog at 3 mg/kg, iv administered as single dose by LC/MS/MS analysis. The format is ADME, organism-based, Canis lupus familiaris. As to conditions: in vivo, read-out: beta t1/2 (converted).
Data set [13] in a line: Volume of distribution at steady state in cynomolgus monkey at 3 mg/kg, iv administered as single dose by LC/MS/MS analysis. As to conditions: in vivo, read-out: Vdss. The format is ADME, organism-based, Macaca fascicularis.
Data set [14] in a line: Cmax in Beagle dog at 5 mg/kg, po administered as single dose by LC/MS/MS analysis. Type of data set: ADME, organism-based, Canis lupus familiaris. On the set-up: dose 5 mg/kg, route oral. To be noted: in vivo.
For data set [15], the system named is Liver microsome. Description: Intrinsic clearance in Sprague-Dawley rat liver microsomes assessed per gram of liver at 0.5 uM by LC/MS/MS analysis. Type of data set: ADME. (Microsomes from liver hold many membrane-bound enzymes, among them those of drug oxidation.)
Data set [16] deals with Streptococcus pneumoniae. Description: Antibacterial activity against quinolone-resistant Streptococcus pneumoniae TPS3 in rat respiratory tract infection model assessed as decrease in bacterial burden in lung at 50 mg/kg po bid administered through gavage at 1, 7, 24,31 hrs post infection measured after 48 hrs. Type of data set: functional, organism-based.
Data set [17] relates to Rattus norvegicus. Description: Blood clearance in Sprague-Dawley rat at 3 mg/kg, iv administered as single dose by LC/MS/MS analysis relative to hepatic blood flow. As to conditions: in vivo. Type of data set: ADME, organism-based, Liver.
For data set [18], the system named is Canis familiaris. In words: Oral bioavailability in Beagle dog at 5 mg/kg administered as single dose by LC/MS/MS analysis. The format is ADME, organism-based, Canis lupus familiaris. To be noted: in vivo.
Data set [19] is described as follows: Intrinsic clearance in cynomolgus monkey liver microsomes assessed per gram of liver at 0.5 uM by LC/MS/MS analysis. The format is ADME, Macaca fascicularis.
Data set [20] in a line: Cmax in cynomolgus monkey at 5 mg/kg, po administered as single dose by LC/MS/MS analysis. The format is ADME, organism-based, Macaca fascicularis. On the set-up: dose 5 mg/kg, route oral. As to conditions: in vivo.
Data set [21] is described as follows: Plasma protein binding in Sprague-Dawley rat at 0.5 to 5 ug/ml by equilibrium dialysis method. To be noted: read-out: PPB (converted). The format is ADME, cell-free.
Data set [22] can be described thus: Terminal half life in Sprague-Dawley rat at 3 mg/kg, iv administered as single dose by LC/MS/MS analysis. As to conditions: in vivo, read-out: beta t1/2 (converted). Type of data set: ADME, organism-based.
Data set [23] is described as follows: Cmax in Sprague-Dawley rat at 5 mg/kg, po administered as single dose by LC/MS/MS analysis. The arrangement: dose 5 mg/kg, route oral. Type of data set: ADME, organism-based. To be noted: in vivo.
Data set [24] deals with Voltage-gated inwardly rectifying potassium channel KCNH2 (Homo sapiens, UniProt Q12809). Description: Inhibition of human ERG.
In data set [25] the test system is Streptococcus pneumoniae. In words: Antibacterial activity against quinolone-resistant Streptococcus pneumoniae TPS3 in rat respiratory tract infection model assessed as decrease in bacterial burden in lung at 100 mg/kg, po bid administered through gavage at 1, 7, 24,31 hrs post infection measured after 48 hrs. Type of data set: functional, organism-based.
A short description of data set [26]: Plasma protein binding in cynomolgus monkey at 0.5 to 5 ug/ml by equilibrium dialysis method. As to conditions: read-out: PPB (converted). Type of data set: ADME, cell-free, Macaca fascicularis.
Data set [27] concerns Rattus norvegicus. Description: AUC in Sprague-Dawley rat at 100 mg/kg, po bid by LC/MS/MS analysis. The format is ADME, organism-based. To be noted: in vivo.
The nature of data set [28]: Terminal half life in cynomolgus monkey at 3 mg/kg, iv administered as single dose by LC/MS/MS analysis. As to conditions: in vivo, read-out: beta t1/2 (converted). The format is ADME, organism-based, Macaca fascicularis.
Data set [29] can be described thus: Volume of distribution at steady state in Beagle dog at 3 mg/kg, iv administered as single dose by LC/MS/MS analysis. The format is ADME, organism-based, Canis lupus familiaris. To be noted: in vivo, read-out: Vdss.
Data set [30] deals with Canis familiaris. In words: Renal clearance in Beagle dog at 3 mg/kg, iv administered as single dose by LC/MS/MS analysis relative to total clearance. The format is ADME, organism-based, Canis lupus familiaris, Kidney. As to conditions: in vivo.
Data set [31] has as its system Canis familiaris. Description: AUC in Beagle dog at 5 mg/kg, po administered as single dose by LC/MS/MS analysis. Type of data set: ADME, organism-based, Canis lupus familiaris. As to conditions: in vivo.
The test system of data set [32] is Cynomolgus monkey. Description: Blood clearance in cynomolgus monkey at 3 mg/kg, iv administered as single dose by LC/MS/MS analysis relative to hepatic blood flow. Type of data set: ADME, organism-based, Macaca fascicularis, Liver. As to conditions: in vivo.
In data set [33] the test system is Canis familiaris. Description: Blood clearance in Beagle dog at 3 mg/kg, iv administered as single dose by LC/MS/MS analysis relative to hepatic blood flow. The format is ADME, organism-based, Canis lupus familiaris, Liver. To be noted: in vivo.

Converted amounts (≈) assume the structure as drawn. The source made the active and inactive calls. The rule behind the calls is not given here.

Voltage-gated inwardly rectifying potassium channel KCNH2, sequence (Q12809 whole entry): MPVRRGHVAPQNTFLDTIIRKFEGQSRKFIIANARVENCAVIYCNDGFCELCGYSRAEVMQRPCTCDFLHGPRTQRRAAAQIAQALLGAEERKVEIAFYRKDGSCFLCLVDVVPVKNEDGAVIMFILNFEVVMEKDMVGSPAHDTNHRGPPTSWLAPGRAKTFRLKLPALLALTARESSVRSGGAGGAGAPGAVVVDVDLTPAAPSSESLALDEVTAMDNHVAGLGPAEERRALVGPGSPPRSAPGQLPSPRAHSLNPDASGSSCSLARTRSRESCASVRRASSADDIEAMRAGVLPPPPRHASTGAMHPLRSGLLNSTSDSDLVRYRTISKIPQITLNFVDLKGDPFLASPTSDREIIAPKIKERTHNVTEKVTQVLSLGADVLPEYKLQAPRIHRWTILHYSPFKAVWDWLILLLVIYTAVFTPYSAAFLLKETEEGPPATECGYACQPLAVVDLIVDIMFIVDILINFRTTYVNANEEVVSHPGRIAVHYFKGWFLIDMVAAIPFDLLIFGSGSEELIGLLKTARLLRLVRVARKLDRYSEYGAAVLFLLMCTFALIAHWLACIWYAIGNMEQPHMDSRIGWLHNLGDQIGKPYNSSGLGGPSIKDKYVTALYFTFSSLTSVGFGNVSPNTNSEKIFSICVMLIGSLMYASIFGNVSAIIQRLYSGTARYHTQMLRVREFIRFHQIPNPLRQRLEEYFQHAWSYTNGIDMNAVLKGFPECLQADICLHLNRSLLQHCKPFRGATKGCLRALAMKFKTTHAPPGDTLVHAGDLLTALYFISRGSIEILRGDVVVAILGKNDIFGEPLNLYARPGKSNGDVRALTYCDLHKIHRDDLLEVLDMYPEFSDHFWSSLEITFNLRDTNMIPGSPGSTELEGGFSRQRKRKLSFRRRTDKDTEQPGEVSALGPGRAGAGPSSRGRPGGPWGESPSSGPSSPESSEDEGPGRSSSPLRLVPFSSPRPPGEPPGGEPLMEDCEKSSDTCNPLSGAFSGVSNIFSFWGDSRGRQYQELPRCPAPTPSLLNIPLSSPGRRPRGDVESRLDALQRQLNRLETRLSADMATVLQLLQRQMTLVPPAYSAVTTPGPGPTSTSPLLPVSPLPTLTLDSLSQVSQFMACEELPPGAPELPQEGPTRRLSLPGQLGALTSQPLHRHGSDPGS

As for `Cc1cc(F)c2c3c1ccc(=O)n3C[C@H]2CN1CCC(NCc2cc3c(nn2)OCCO3)CC1`, the MIC in the data set on Haemophilus influenzae came out at 2 µg/mL (≈ 4.3 µM); against Streptococcus pneumoniae [1], 0.5 µg/mL (≈ 1.07 µM); against Staphylococcus aureus, 0.06 µg/mL (≈ 0.129 µM). The compound also registered an IC50 in [2] of 0.099 µg/mL (≈ 0.213 µM).
On to `O=C1CC(NCc2cc3c(nn2)OCCO3)CCN1C[C@@H]1Cn2c(=O)ccc3ccc(F)c1c32` (stereo partly specified), for which the MIC is more than 16 µg/mL in the data set on Haemophilus influenzae, 16 µg/mL (≈ 34.4 µM) against Streptococcus pneumoniae [1] and 16 µg/mL (≈ 34.4 µM) against Staphylococcus aureus. Further, in [2], the IC50 was 0.166 µg/mL (≈ 0.357 µM).
As to `O=c1ccc2cccc3c2n1C[C@H]3CN1CCC(NCc2cc3c(nn2)OCCO3)CC1`, the MIC in the data set with Haemophilus influenzae was 2 µg/mL (≈ 4.61 µM); in the data set with Streptococcus pneumoniae [1], 1 µg/mL (≈ 2.31 µM); with Staphylococcus aureus it was 0.5 µg/mL (≈ 1.15 µM).
For `O=c1ccc2ccc(F)c3c2n1C[C@H]3CN1CCCC(CNCc2cc3c(nn2)OCCO3)C1` (stereo partly specified), the MIC with Haemophilus influenzae is more than 16 µg/mL; against Streptococcus pneumoniae [1], 4 µg/mL (≈ 8.59 µM); against Staphylococcus aureus, 1 µg/mL (≈ 2.15 µM). The IC50 in data set [2] is 0.666 µg/mL (≈ 1.43 µM).
For `N#Cc1ccc2ccc(=O)n3c2c1[C@H](CN1CCC(NCc2cc4c(nn2)OCCO4)CC1)C3`, in that order: 2 µg/mL (≈ 4.36 µM), 0.5 µg/mL (≈ 1.09 µM), 0.25 µg/mL (≈ 0.545 µM) and 0.062 µg/mL (≈ 0.135 µM).
`O=c1ccc2ccc(F)c3c2n1C[C@@H]3CN1CCC(NCc2cc3c(nn2)OCCO3)CC1`: the MIC is more than 16 µg/mL in the data set with Haemophilus influenzae, 8 µg/mL (≈ 17.7 µM) against Streptococcus pneumoniae [1] and 2 µg/mL (≈ 4.43 µM) with Staphylococcus aureus. Further, in [2], the IC50 was 0.121 µg/mL (≈ 0.268 µM).
`Cc1ccc2ccc(=O)n3c2c1[C@H](CN1CCC(NCc2cc4c(nn2)OCCO4)CC1)C3`: the MIC in the data set with Haemophilus influenzae came to 4 µg/mL (≈ 8.94 µM); against Streptococcus pneumoniae [1] it was 1 µg/mL (≈ 2.23 µM); against Staphylococcus aureus, 0.25 µg/mL (≈ 0.559 µM). Moreover, the IC50 in data set [2] is 0.076 µg/mL (≈ 0.17 µM).
As to `COc1ccc2ccc(=O)n3c2c1[C@H](CN1CCC(NCc2cc4c(nn2)OCCO4)CC1)C3`, the values for the MIC with Haemophilus influenzae, against Streptococcus pneumoniae [1] and against Staphylococcus aureus were 16 µg/mL (≈ 34.5 µM), 8 µg/mL (≈ 17.3 µM) and 2 µg/mL (≈ 4.31 µM), respectively. Besides, the IC50 in data set [2] amounted to 0.276 µg/mL (≈ 0.595 µM).
As for `O=c1cnc2ccc(F)c3c2n1C[C@H]3CN1CCC(NCc2cc3c(nn2)OCCO3)CC1`, the values for the MIC against Haemophilus influenzae and in the data set on Staphylococcus aureus were 0.5 µg/mL (≈ 1.1 µM) and 0.06 µg/mL (≈ 0.133 µM), respectively. The compound further came in with an IC50 in [2] of 0.036 µg/mL (≈ 0.0796 µM).
Turning to `O=c1ccc2ccc(F)c3c2n1C[C@H]3CN1CCC(NCc2cc3c(nn2)OCCO3)CC1` [GSK-945237], the CLint is less than 0.6 mL/min/g in the data set with Liver microsome [3], 0.7 mL/min/g in the data set on Liver microsome [15] and 1.5 mL/min/g in data set [19]. For the same compound, the Vd in [4] was 7.2 L/kg; in data set [13], 8.2 L/kg; in data set [29], 6.1 L/kg. In addition, the AUC in the data set on Cynomolgus monkey [5] came to 1190 ng·h/mL; with Rattus norvegicus [6], 290 ng·h/mL; with Rattus norvegicus [27], 30 ug.hr/ml/day; in the data set with Canis familiaris [31], 6050 ng·h/mL. The MIC in the data set with Haemophilus influenzae came out at 1 µg/mL (≈ 2.21 µM); in the data set on Streptococcus pneumoniae [1], 0.25 µg/mL (≈ 0.554 µM); against Staphylococcus aureus, 0.06 µg/mL (≈ 0.133 µM). For the same compound, the F in the data set with Cynomolgus monkey [7] was found to be 34%; in the data set with Rattus norvegicus [11], 22%; with Canis familiaris [18], 100%. Besides, the fraction unbound in data set [8] is 0.53; in data set [21], 0.367; in data set [26], 0.576. The CL is listed as 45% in the data set on Cynomolgus monkey [9]; 100% in the data set on Rattus norvegicus [17]; 74% in the data set with Canis familiaris [30]; 40% in the data set on Cynomolgus monkey [32]; 40% in the data set with Canis familiaris [33]. Also, the Cmax came to 3000 ng/mL in [10], 1070 ng/mL in data set [14], 210 ng/mL in data set [20] and 40 ng/mL in data set [23]. The figures for the half-life in data set [12], in [22] and in data set [28] were 8.8 h, 1.9 h and 7.6 h, respectively. Besides, the result with Streptococcus pneumoniae [16] and with Streptococcus pneumoniae [25] was Active. Moreover, the IC50 was found to be 238 µM in data set [24] and 0.034 µg/mL (≈ 0.0753 µM) in [2].
Regarding `COc1c(N2C[C@@H]3CCCN[C@@H]3C2)c(F)cc2c(=O)c(C(=O)O)cn(C3CC3)c12` [MOXIFLOXACIN], in the data set with Streptococcus pneumoniae [1], the MIC came to 4 µg/mL (≈ 9.96 µM). Also, in the data set with Streptococcus pneumoniae [25], the outcome was inactive.

Usually IC50 stands for the concentration needed to halve the response being measured. By Cmax is commonly meant the peak of the concentration-time curve.
